In experiment [1] the target is human TLR7 (Homo sapiens (Human), UniProt Q9NYK1). In words: HEK-Blue human TLR7 cells, NF-κB SEAP reporter assay. Format: cell-based. The following applies: stimulation for 20 hours. The source says: (§1) For TLR8 and TLR7 activity testing, HEK-Blue human TLR8 or TLR7 cells (Invivogen, San Diego, Calif., USA) are used, respectively. These cells are designed for studying the stimulation of human TLR8 or TLR7 by monitoring the activation of NF-κB. A SEAP (secreted embryonic alkaline phosphatase) reporter gene is placed under the control of the IFN-b minimal promoter fused to five NF-κB and AP-1-binding sites. Therefore the reporter expression is regulated by the NF-κB promoter upon stimulation of human TLR8 or TLR7 for 20 hours. The cell culture supernatant SEAP reporter activity was determined using Quanti Blue kit (Invivogen, San Diego, Ca, USA) at a wavelength of 640 nm, a detection medium that turns purple/blue in the presence of alkaline phosphatase. EC50 values were determined using Activity Base analysis (ID Business Solution, Limited).
On the technique in general: In a reporter assay the amount or activity of a reporter protein is the signal.

Experiment [2] has as its target human TLR8 (Homo sapiens (Human), UniProt Q9NR97). In words: HEK-Blue human TLR8 cells, NF-κB SEAP reporter assay. The class given is cell-based. The following applies: stimulation for 20 hours.
Description: as §1

Sequence of human TLR7 (Q9NYK1 27-1049): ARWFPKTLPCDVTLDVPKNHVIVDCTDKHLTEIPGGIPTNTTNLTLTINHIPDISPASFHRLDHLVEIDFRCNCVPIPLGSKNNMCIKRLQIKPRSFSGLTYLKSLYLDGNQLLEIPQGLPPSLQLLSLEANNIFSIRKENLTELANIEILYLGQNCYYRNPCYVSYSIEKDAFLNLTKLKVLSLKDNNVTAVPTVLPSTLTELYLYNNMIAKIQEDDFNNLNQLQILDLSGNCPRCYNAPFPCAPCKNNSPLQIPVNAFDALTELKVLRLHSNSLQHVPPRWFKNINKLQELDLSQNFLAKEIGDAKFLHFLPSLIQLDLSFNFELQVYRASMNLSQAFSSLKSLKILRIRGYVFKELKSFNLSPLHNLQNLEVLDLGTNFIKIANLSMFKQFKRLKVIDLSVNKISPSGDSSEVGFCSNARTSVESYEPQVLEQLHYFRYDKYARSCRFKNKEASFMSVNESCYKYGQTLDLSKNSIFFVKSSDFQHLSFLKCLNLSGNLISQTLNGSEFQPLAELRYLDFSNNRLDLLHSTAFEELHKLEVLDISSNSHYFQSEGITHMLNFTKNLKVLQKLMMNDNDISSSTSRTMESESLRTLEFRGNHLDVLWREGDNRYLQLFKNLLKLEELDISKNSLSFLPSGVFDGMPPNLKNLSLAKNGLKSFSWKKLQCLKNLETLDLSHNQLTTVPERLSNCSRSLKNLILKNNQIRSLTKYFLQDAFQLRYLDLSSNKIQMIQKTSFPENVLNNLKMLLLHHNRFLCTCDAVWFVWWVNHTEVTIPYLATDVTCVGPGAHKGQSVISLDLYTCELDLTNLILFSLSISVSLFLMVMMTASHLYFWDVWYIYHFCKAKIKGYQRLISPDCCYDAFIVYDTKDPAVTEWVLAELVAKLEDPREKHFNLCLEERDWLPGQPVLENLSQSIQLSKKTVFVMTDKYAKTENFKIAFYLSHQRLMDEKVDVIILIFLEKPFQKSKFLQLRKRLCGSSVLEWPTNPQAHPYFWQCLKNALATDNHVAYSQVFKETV
Sequence of human TLR8 (Q9NR97 27-1041): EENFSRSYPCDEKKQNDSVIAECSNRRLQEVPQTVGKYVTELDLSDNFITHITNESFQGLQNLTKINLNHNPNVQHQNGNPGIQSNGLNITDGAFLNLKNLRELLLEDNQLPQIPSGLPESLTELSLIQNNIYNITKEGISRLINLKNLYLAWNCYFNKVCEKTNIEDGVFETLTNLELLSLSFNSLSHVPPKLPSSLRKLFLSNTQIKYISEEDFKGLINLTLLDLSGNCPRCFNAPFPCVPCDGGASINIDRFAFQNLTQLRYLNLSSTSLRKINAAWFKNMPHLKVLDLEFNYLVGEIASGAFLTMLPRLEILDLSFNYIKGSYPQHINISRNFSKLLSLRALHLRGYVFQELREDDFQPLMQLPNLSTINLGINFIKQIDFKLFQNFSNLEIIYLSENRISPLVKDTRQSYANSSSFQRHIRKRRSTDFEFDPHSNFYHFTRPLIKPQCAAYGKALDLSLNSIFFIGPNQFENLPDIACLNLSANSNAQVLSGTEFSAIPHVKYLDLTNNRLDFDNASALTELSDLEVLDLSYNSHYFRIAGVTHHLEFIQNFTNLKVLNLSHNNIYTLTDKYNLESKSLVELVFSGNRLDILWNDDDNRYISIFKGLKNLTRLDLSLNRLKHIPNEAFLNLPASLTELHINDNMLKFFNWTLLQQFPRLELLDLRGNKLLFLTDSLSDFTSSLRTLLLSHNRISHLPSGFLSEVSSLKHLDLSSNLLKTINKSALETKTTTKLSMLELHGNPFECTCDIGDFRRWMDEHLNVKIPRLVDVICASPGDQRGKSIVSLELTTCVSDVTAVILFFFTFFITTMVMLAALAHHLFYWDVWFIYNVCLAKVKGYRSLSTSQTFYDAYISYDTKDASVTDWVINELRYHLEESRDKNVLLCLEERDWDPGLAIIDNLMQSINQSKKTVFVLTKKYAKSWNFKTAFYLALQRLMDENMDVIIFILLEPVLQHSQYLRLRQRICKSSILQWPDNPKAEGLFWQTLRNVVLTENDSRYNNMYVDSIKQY

What is called EC50 is the midpoint of the concentration-response curve. Higher therefore signals a need for much substance. As for `CCCN(CCC)C(=O)C1=Cc2ccc(C(=O)Nc3cncc(OCCCCCN)c3)cc2N=C(N)C1` [Example 46, 2-Amino-N8-[5-(5-aminopentoxy)-3-pyridyl]-N4,N4-dipropyl-3H-1-benzazepine-4,8-dicarboxamide], the values for the EC50 in experiment [1] and in experiment [2] were > 100000 nM and 10 nM, respectively.
On to `CCCN(CCC)C(=O)C1=Cc2ccc(C(=O)Nc3cccc(COCCOCCN)c3)cc2N=C(N)C1` [Example 47, 2-Amino-N8-[3-[2-(2-aminoethoxy)ethoxymethyl]phenyl]-N4,N4-dipropyl-3H-1-benzazepine-4,8-dicarboxamide], for which the EC50 in experiment [1] is > 100000 nM; in experiment [2], 6 nM.
Taken in the same sequence, the figures for `CCCN(CCC)C(=O)C1=Cc2ccc(C(=O)Nc3cncc(C#CCN)c3)cc2N=C(N)C1` [Example 48, 2-Amino-N8-[5-(3-aminoprop-1-ynyl)-3-pyridyl]-N4,N4-dipropyl-3H-1-benzazepine-4,8-dicarboxamide] were > 100000 nM and 16 nM.
The like results for `CCCN(CCCOCCOCCN)C(=O)C1=Cc2ccc(C(=O)Nc3cccc(C)c3)cc2N=C(N)C1` [Example 49, 2-amino-N4-[3-[2-(2-aminoethoxy)ethoxy]propyl]-N8-(m-tolyl)-N4-propyl-3H-1-benzazepine-4,8-dicarboxamide] were, in that order, > 100000 nM and 31 nM.
The like results for `CCCN(CCC)C(=O)C1=Cc2ccc(C(=O)Nc3cncc(CCCN)c3)cc2N=C(N)C1` [Example 50, 2-Amino-N8-[5-(3-aminopropyl)-3-pyridyl]-N4,N4-dipropyl-3H-1-benzazepine-4,8-dicarboxamide] were, in that order, > 100000 nM and 10 nM.
Take `CCCN(CCC(F)(F)F)C(=O)C1=Cc2ccc(C(=O)Nc3cccc(C)c3)cc2N=C(N)C1` [Example 51, 2-Amino-N8-(m-tolyl)-N4-propyl-N4-(3,3,3-trifluoropropyl)-3H-1-benzazepine-4,8-dicarboxamide]: the EC50 in experiment [1] turned out to be 22000 nM; in experiment [2], 2 nM.
Taken in the same sequence, the figures for `CCCN(CCC)C(=O)C1=Cc2ccc(C(=O)Nc3cncc(/C=C\CN)c3)cc2N=C(N)C1` [Example 52, 2-Amino-N8-[5-[(Z)-3-aminoprop-1-enyl]-3-pyridyl]-N4,N4-dipropyl-3H-1-benzazepine-4,8-dicarboxamide] were > 100000 nM and 6 nM.
The like results for `CCCN(CC1CC1)C(=O)C1=Cc2ccc(C(=O)Nc3cccc(C)c3)cc2N=C(N)C1` [Example 53, 2-Amino-N4-(cyclopropylmethyl)-N8-(m-tolyl)-N4-propyl-3H-1-benzazepine-4,8-dicarboxamide] were, in that order, 20000 nM and 2 nM.
Turning to `CCCN(CCC)C(=O)C1=Cc2ccc(C(=O)Nc3cccc(CCN)c3)cc2N=C(N)C1` [Example 54, 2-Amino-N8-[3-(2-aminoethyl)phenyl]-N4,N4-dipropyl-3H-1-benzazepine-4,8-dicarboxamide], the EC50 was > 100000 nM in experiment [1] and 3 nM in experiment [2].
Consider `CCCN(CC(C)C)C(=O)C1=Cc2ccc(C(=O)Nc3cccc(C)c3)cc2N=C(N)C1` [Example 55, 2-Amino-N4-isobutyl-N8-(m-tolyl)-N4-propyl-3H-1-benzazepine-4,8-dicarboxamide], for which the EC50 in experiment [1] is > 100000 nM; in experiment [2] it was 2 nM.
Taken in the same sequence, the figures for `CCCN(CCCOCCCN)C(=O)C1=Cc2ccc(C(=O)Nc3cccc(C)c3)cc2N=C(N)C1` [Example 56, 2-Amino-N4-[3-(3-aminopropoxy)propyl]-N8-(m-tolyl)-N4-propyl-3H-1-benzazepine-4,8-dicarboxamide] were > 100000 nM and 10 nM.
`CCCN(CCC)C(=O)C1=Cc2ccc(C(=O)Nc3cccc(CCCCCN)c3)cc2N=C(N)C1` [Example 57, 2-Amino-N8-[3-(5-aminopentyl)phenyl]-N4,N4-dipropyl-3H-1-benzazepine-4,8-dicarboxamide]: the EC50 was > 100000 nM in experiment [1] and 25 nM in experiment [2].

For the origin of these results see patent US9475775B2, “Benzazepine dicarboxamide compounds” (Hoffmann-La Roche Inc., priority 2015, dated 2016).
